Measured values reported in article PMC4100265, “Inhibition of Human Cytochrome P450 Enzymes by Allergen Removed Rhus verniciflua Stoke Standardized Extract and Constituents” (Evidence-based Complementary and Alternative Medicine : eCAM, 2014).
Where two headings read alike, the source gives them in different places.

Legend:
Type in all cases: in vitro ADME
recombinant human CYP3A4 = molecular target: T1, recombinant human CYP3A4 (Homo sapiens, UniProt P08684); experiment: Luminogenic P450-Glo enzyme inhibition assay, CYP3A4
T1 construct: purchased Promega (P450-Glo Screening system); host or cells: baculovirus expression system
T1 sequence (P08684 whole entry): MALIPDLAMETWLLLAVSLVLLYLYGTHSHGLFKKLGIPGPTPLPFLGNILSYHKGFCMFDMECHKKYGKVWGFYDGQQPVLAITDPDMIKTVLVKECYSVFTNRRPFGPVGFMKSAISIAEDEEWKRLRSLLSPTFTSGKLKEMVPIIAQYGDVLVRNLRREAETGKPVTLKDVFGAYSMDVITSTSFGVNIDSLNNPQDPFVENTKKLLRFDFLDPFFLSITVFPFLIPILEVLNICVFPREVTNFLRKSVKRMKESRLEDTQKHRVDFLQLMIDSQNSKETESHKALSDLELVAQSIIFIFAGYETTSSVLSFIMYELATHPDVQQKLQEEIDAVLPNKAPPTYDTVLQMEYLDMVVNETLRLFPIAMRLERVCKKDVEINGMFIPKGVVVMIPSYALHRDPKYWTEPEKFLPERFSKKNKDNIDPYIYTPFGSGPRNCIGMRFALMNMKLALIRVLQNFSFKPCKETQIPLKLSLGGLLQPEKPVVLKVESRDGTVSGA
Experimental: (§1) The assay was carried out using P450-Glo Screening system from Promega (Promega Inc., Madison Wis., USA). It contains recombinant human CYP1A2, CYP2C9, CYP2C19, CYP2D6, and CYP3A4 enzymes in the membranes produced by a baculovirus expression system, specific luminogenic cytochrome enzyme substrates (luciferin 6-methyl ether, luciferin 6-benzyl ether, 6-deoxyluciferin, ethylene glycol ester of 6-deoxyluciferin, and ethylene glycol ester of luciferin 6-methyl ether), negative control membranes, a nicotinamide adenine dinucleotide phosphate hydrogen (NADPH) regeneration system containing NADP+, glucose-6-phosphate, magnesium chloride (MgCl2) and glucose-6-phosphate dehydrogenase (functioning to initiate and sustain the CYP450 reaction by maintaining a non-limiting NADPH system), reaction buffer, luciferin detection reagent, and Luciferin-Free Water. The negative control membranes were devoid of CYP activity. The luminogenic inhibition assays were performed following the protocols from Promega Corp. (Technical Bulletin, P450-Glo Assays, Promega Corp., 2009) and previous studies. […] The 12.5 μL of the luciferin-free water was added individually in both the “untreated” wells representing the values of total CYP activity and the “minus-P450 control” wells representing the values of the CYP-independent background luminescence. Secondly, 12.5 μL of the 4× reaction mixture (containing human CYP membrane preparations, the appropriate luminogenic substrate, and potassium phosphate buffer) was added to the “treated” and the “untreated” wells. The 12.5 μL of the 4× control reaction mixture (containing membrane preparations devoid of CYP enzymes, the appropriate luminogenic substrate, and potassium phosphate buffer) was added to the “minus-P450 control” wells. The plate was preincubated at room temperature (25°C) for 10 min, and then 25 μL of the 2× NADPH regeneration system was added to initiate the reaction. […] The luminescence in all of the samples was measured using a microplate reader as relative light units (RLU) after 20 min incubation to stabilize the luminescent signal. The assay experiments were repeated three independent times. The amount of light produced is directly proportional to the CYP enzyme activity. The net signals from untreated CYP reactions represent total CYP activity (100%). The modulation of the CYP activity by the test compound was determined by comparing the changes from the average net signal of untreated CYP reactions with the changes observed from the test compound. […] USA).

recombinant human CYP2C9 = molecular target: T2, recombinant human CYP2C9 (Homo sapiens, UniProt P11712); experiment: Luminogenic P450-Glo enzyme inhibition assay, CYP2C9
T2 construct: purchased Promega (P450-Glo Screening system); host or cells: baculovirus expression system
T2 sequence (P11712 whole entry): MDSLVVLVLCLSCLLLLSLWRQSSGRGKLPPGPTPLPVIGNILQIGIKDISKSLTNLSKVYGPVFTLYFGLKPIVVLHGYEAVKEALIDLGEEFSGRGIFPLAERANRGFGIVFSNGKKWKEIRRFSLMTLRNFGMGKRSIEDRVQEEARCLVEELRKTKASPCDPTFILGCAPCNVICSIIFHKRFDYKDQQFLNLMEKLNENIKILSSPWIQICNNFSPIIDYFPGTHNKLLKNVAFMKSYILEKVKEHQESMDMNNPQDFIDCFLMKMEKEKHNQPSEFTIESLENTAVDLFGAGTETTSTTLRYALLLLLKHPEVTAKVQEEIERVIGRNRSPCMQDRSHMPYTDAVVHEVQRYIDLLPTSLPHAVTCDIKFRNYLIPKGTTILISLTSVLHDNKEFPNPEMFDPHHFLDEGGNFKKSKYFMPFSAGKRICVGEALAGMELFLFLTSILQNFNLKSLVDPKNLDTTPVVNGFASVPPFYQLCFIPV
Experimental: as §1

recombinant human CYP1A2 = molecular target: T3, recombinant human CYP1A2 (Homo sapiens, UniProt P05177); experiment: Luminogenic P450-Glo enzyme inhibition assay, CYP1A2
T3 construct: purchased Promega (P450-Glo Screening system); host or cells: baculovirus expression system
T3 sequence (P05177 1-516): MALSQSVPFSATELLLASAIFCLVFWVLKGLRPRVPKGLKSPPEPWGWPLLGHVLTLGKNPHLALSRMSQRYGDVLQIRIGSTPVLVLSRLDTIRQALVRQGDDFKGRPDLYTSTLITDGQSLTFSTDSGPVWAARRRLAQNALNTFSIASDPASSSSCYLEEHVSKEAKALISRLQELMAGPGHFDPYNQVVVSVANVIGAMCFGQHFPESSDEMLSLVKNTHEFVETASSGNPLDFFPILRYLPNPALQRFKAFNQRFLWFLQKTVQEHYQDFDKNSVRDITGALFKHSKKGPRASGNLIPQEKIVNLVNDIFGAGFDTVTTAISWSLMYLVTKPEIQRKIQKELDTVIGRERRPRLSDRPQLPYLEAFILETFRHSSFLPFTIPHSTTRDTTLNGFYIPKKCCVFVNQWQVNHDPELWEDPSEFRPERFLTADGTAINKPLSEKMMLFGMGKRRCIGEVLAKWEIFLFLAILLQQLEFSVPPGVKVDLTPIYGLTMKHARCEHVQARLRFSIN
Experimental: as §1

CYP2D6 = molecular target: T4, CYP2D6 (Homo sapiens, UniProt P10635); experiment: Luminogenic P450-Glo enzyme inhibition assay, CYP2D6
T4 construct: purchased Promega (P450-Glo Screening system); host or cells: baculovirus expression system
T4 sequence (P10635 whole entry): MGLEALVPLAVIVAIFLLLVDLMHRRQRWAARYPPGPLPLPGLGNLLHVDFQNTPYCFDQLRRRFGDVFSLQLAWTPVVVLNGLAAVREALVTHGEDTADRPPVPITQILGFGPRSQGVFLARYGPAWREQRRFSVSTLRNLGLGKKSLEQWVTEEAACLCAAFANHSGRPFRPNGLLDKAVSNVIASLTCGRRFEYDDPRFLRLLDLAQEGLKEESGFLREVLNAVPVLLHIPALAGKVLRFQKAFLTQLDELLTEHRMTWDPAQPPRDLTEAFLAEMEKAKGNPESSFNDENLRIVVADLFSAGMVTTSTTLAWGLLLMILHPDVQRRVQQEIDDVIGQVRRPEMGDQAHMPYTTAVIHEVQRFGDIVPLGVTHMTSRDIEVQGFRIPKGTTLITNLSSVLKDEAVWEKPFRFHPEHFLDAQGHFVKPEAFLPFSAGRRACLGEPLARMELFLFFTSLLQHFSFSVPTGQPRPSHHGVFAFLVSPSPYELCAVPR
Experimental: as §1

[1] = molecular target: T5, recombinant human CYP2C19 (Homo sapiens, UniProt P33261); experiment: Luminogenic P450-Glo enzyme inhibition assay, CYP2C19
T5 construct: purchased Promega (P450-Glo Screening system); host or cells: baculovirus expression system
T5 sequence (P33261 whole entry): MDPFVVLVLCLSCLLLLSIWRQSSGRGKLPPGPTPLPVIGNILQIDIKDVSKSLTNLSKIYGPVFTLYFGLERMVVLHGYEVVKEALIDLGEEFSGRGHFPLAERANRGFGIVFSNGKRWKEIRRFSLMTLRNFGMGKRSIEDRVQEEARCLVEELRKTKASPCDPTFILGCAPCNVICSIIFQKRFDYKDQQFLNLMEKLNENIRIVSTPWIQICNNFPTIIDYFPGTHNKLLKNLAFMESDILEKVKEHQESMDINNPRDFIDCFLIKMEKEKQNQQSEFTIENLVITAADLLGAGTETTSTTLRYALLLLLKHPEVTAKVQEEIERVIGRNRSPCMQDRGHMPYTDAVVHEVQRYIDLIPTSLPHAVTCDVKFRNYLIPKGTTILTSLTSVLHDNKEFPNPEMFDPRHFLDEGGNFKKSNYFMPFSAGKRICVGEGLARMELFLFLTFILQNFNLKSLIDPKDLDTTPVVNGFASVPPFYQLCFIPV
Experimental: as §1

[2] = classified by IC50 value, read-out: inhibitory potency class on CYP3A4
[3] = recombinant human enzyme, luminescent assay, 30 min incubation, read-out: IC50 CYP3A4 (converted)
[4] = classified by IC50 value, read-out: inhibitory potency class on CYP2C9
[5] = recombinant human enzyme, luminescent assay, 30 min incubation, read-out: IC50 CYP2C9 (converted)
[6] = classified by IC50 value, read-out: inhibitory potency class on CYP1A2
[7] = recombinant human enzyme, luminescent assay, 30 min incubation, read-out: IC50 CYP1A2 (converted)
[8] = classified by IC50 value, read-out: inhibitory potency class on CYP2D6
[9] = recombinant human enzyme, luminescent assay, 45 min incubation, read-out: IC50 CYP2D6 (converted)
[10] = classified by IC50 value, read-out: inhibitory potency class on CYP2C19
[11] = recombinant human enzyme, luminescent assay, 30 min incubation, read-out: IC50 CYP2C19 (converted)

IC50 (recombinant human CYP3A4; [2]) [µM]	IC50 (recombinant human CYP3A4; [3]) [µM]	IC50 (recombinant human CYP2C9; [4]) [µM]	IC50 (recombinant human CYP2C9; [5]) [µM]	IC50 (recombinant human CYP1A2; [6]) [µM]	IC50 (recombinant human CYP1A2; [7]) [µM]	IC50 (CYP2D6; [8]) [µM]	IC50 at 45 min (CYP2D6; human, classified by IC50 value, read-out: inhibitory potency class on CYP2D6) [µg/mL]	IC50 (CYP2D6; [9]) [µM]	IC50 [1, 10] [µM]	IC50 [1, 11] [µM]	SMILES
> 349	1080	< 69.9	18.9	< 69.9	1.61	69.9 to 349	> 100	163	< 69.9	< 0.00349	O=c1c(O)c(-c2ccc(O)c(O)c2)oc2cc(O)ccc12 [Fisetin, 2-(3,4-dihydroxyphenyl)-3,7-dihydroxychromen-4-one]
> 347	1610	> 347	1870	> 347	17100	> 347		18500	69.4 to 347	223	O=C1c2ccc(O)cc2OC(c2ccc(O)c(O)c2)C1O (stereo not drawn) [Fustin, 2-(3,4-dihydroxyphenyl)-3,7-dihydroxy-2,3-dihydrochromen-4-one]
